Laboratory results: patent publication US20130053347A1, “PRO-DRUGS OF AMARYLLIDACEAE ISOCARBOSTYRIL PRODUCTS AND THEIR USE AGAINST BRAIN TUMORS” (Universite Libre de Bruxelles, priority 2010, published 2013)

Columns and labels:
mice = details: cited from earlier work
[1] = cited from earlier work
[2] = tested on: human NSCLC A549 cells grafted into the lungs of nude mice; assay: NSCLC model, cells grafted into the lungs, survival; format: in vivo; details: A549 in lungs; Taxol 20 mg/kg, Narciclasine 1 mg/kg once per week during 5 consecutive weeks
Experimental: (§1) FIG. 6: anti-tumor effects of Narciclasine versus taxol in human NSCLC (non small cell lung carcinoma) models. The left panel illustrates the lungs of mice bearing lung tumor (tumor tissue is the white nodular one; pink part is the residual normal lung tissue) and hematoxilin eosin staining of the lung tumor (middle) and the brain metastasis that developed into the brain of nude mice after the graft of A549 human NSCLC cells into the lung (lower panel). Anti-tumor effects were evaluated in terms of animal survival when cells are grafted into the lungs (upper right graph) or directly into the brain (right lower panel). Taxol (dose: 20 mg/kg) and Narciclasine (dose: 1 mg/kg) were administered once per week during 5 consecutive weeks.
(§2) We tested also the anti-cancer effects of Narciclasine in non small cell lung carcinoma models (NSCLC). When human NSCLC A549 cells are grafted into the lungs of nude mice, those later develop lung tumors leading after to liver and brain metastases in 80% of the cases (Mathieu A et al, Cancer 2004).

[3] = tested on: human melanoma VM-21 cells grafted subcutaneously; assay: subcutaneous melanoma model, survival; format: in vivo; details: VM-21 subcutaneous, nude mice; Narciclasine per os
Experimental: FIG. 7: anti-tumor effects of Narciclasine in human melanoma models. The left panel illustrates typical hematoxilin eosin staining of subcutaneous tumor and lung metastasis developed when VM-21 human melanoma cells are grafted subcutaneously in nude mice and their corresponding survival analysis. Narciclasine was administered per os while dacarbazine was administered intra-peritoneally. Doses and schedules appear on the graphs (ai X bw meaning “a” administrations per week during “b” weeks). The right panel illustrates typical hematoxilin eosin staining of human melanoma brain tumor developed into the brain when VM-48 human brain metastatic melanoma cells are grafted into the brain of nude mice and their corresponding survival analysis. Narciclasine and temozolomide (TMZ) were administered per os. Doses and schedules appear on the graphs (same legend than left panel).
Similarly, we grafted subcutaneously human melanoma VM-21 cells. This graft leads to tumor formation and further lung metastases as illustrated in FIG. 7. […] VM-48 cells have been isolated from a human brain metastasis of melanoma. We grafted those cells in their original environment, i.e. the brain to mimic human melanoma brain metastasis (FIG. 7).

[4] = tested on: A549 cells grafted directly into the brain of nude mice; assay: NSCLC cells grafted into the brain, survival; format: in vivo, human; details: A549 in brain; Taxol 20 mg/kg, Narciclasine 1 mg/kg once per week during 5 consecutive weeks
Experimental: as §1, §2

[5] = tested on: Hs683 human glioblastoma cells grafted into the brain of nude mice; assay: human glioblastoma orthotopic model, survival; format: in vivo; details: 1 mg/kg once or twice per week during 5 consecutive weeks, intravenous or oral; two glioblastoma models (Hs683; GL-19 in FIG. 5)
Experimental: FIG. 5: anti-tumor effects of Narciclasine versus temozolomide in human primary brain tumor models. A and B: hematoxilin eosin staining of the brain tumors that developed into the brain of nude mice after intracranial graft of Hs683 and GL-19 human glioblastoma cells (NB: normal brain). Anti-tumor effects were evaluated in terms of animal survival in C and D. TMZ: temozolomide; schedule of administration is mentioned between brackets (“aXb” meaning “a” administrations per week during “b” weeks).
We evaluated the anti-cancer effects of Narciclasine at non toxic dose in two human glioblastoma (primary brain tumors) models (Hs683-model) that we grafted orthotopically directly into the brain of nude mice. […] The therapeutic schedule used here is even lower (one or two injections per week instead of 5 per week) and the administration route was intravenous or oral. […] The few promising NCI results have been obtained at doses higher than 1 mg/kg administered intraperitoneally or subcutaneously.

cancer cells = details: cited from earlier work
[6] = tested on: VM-48 human brain metastatic melanoma cells grafted into the brain of nude mice; assay: melanoma brain metastasis model, survival; format: in vivo; details: VM-48 in brain; intravenously 1 mg/kg twice a week during 3 consecutive weeks

| Structure (SMILES) | maximal dose that can be administered without being toxic (mice; mice) | safe chronical dose (mice; mice) | toxicity (mice; rodents, 1 mg/kg 5 times per week during three weeks at least) | plasmatic concentrations ([1]; 5 mg/kg dose, for few hours only) | oral bioavailability ([1]; mouse, in vivo, po) | survival of the animals [2] | survival benefit [3] | survival benefits [4] | therapeutic benefit in terms of survival [5] | IC50 (cancer cells) | animal survival [6] |
| --- | --- | --- | --- | --- | --- | --- | --- | --- | --- | --- | --- |
| O=C1N[C@@H]2C(=C[C@H](O)[C@@H](O)[C@H]2O)c2cc3c(c(O)c21)OCO3 [Narciclasine] | around 1 mg/kg | 1 mg/kg | without any toxicity | > 50 nM | 32% | did not bring any increase in the survival | could not bring any survival benefit | highly and significantly effective | significant and comparable therapeutic benefits | 50 nM | significant increase in terms of animal survival |
| CC(=O)O[C@H]1C(=O)[C@@]2(C)[C@H]([C@H](OC(=O)c3ccccc3)[C@]3(O)C[C@H](OC(=O)[C@H](O)[C@@H](NC(=O)c4ccccc4)c4ccccc4)C(C)=C1C3(C)C)[C@]1(OC(C)=O)CO[C@@H]1C[C@@H]2O [taxol] |  |  |  |  |  | did significantly |  | became inefficient |  |  |  |
